# Data reported in PMC6193938, “Characterization of a novel AICARFT inhibitor which potently elevates ZMP and has anti-tumor activity in murine models” (Scientific Reports, 2018).
# Read-outs that look alike come from different tables or passages of the source.
# Assays:
# A101D (melenoma) = assay: MS detection of ZMP in cultured cells; format: cell-based; settings: Homo sapiens, low folate RPMI media, 16 hours
# Experimental: (§1) Cells lines were acquired from cell banks, see supplemental material, grown using the cell banks recommended culture conditions (Supplemental Table 3). In some experiments noted “low folate” the cells were washed and grown in folate free RPMI-1640 media (Gibco #27016-021) supplemented with 5 ml 1 M Hepes, 5 ml 100 mM Na pyruvate, 2.5 mg/ml glucose and 10% defined FBS (Hyclone #SH30070) per 500 mL media for 5–7 days to deplete intracellular folate levels prior to the start of the experiment. Where noted, cells were maintained in complete “high folate” RPMI-1640 media (ATCC #30-2001) with 10% defined FBS to contrast with the low folate conditions.
# (§2) ZMP was detected in cultured cells via mass spec analysis. Cells were plated in 96-well plates at 25,000 cells per well in 100 µL with either high or low folate RPMI media and incubated overnight at 37 °C with 5% CO2. Cells were treated with inhibitor compounds for 16 hours, 0.5% DMSO final concentration. Growth media was decanted and cells were lysed for 10 min at room temperature with 50 µL per well of 1x Sure Fire Lysis buffer (Perkin Elmer, SureFire kit component). Aliquots (40 µL) of standard or sample were combined in a deep 96-well plate with 160 µL of internal standard solution containing ^13C5-ZMP (custom synthesis) and ^13C5-AICAr (custom synthesis) at 100 ng/mL in 40 mM ammonium acetate, pH 4. 400 µL of dichloromethane was added to each sample. Samples were sealed, vortexed for 5 minutes, and placed in the refrigerator for at least 30 minutes. The samples were centrifuged at 4 °C for 10 minutes at 16,600 g. 75 µL of the aqueous layer were transferred to a clean 96-well plate and seal prior to analysis.
# (§3) The LC-MS method utilizes a Shimadzu Prominence 20 A HPLC system connected to an AB Sciex 5500™ or an AB Sciex 6500™ triple quadrupole mass spectrometer. Extracted samples were separated using a Thermo Hypercarb™ Javelin guard column (2.1 × 20 mm, 5 µm) with an injection volume of 15 µL and a flow rate of 1 mL/minute.
# (§4) ZMP, AICAr and dUMP were detected using positive ion TurboIonSpray® multiple reaction monitoring mode and the data were processed with AB Sciex MultiQuant™. Back-calculated ZMP concentrations were fit to a four-parameter logistic equation using ACTIVITYBASE 4.0 to determine EC50 values relative to the maximum observed metabolite levels.
# A549 (lung) = assay: MS detection of ZMP in cultured cells; format: cell-based; settings: Homo sapiens, 16 hours
# Experimental: as §1, §2, §3, §4
# HCT 116 (colon) = assay: MS detection of ZMP in cultured cells; format: cell-based; settings: Homo sapiens, 16 hours
# Experimental: as §1, §2, §3, §4
# MIA PaCa-2 (pancreas) = assay: MS detection of ZMP in cultured cells; format: cell-based; settings: Homo sapiens, 16 hours
# Experimental: as §1, §2, §3, §4
# NCI-H1155 (lung) = assay: MS detection of ZMP in cultured cells; format: cell-based; settings: Homo sapiens, 16 hours
# Experimental: as §1, §2, §3, §4
# NCI-H1299 = assay: MS detection of ZMP in cultured cells; format: cell-based; settings: Homo sapiens, low folate RPMI media, 16 hours
# Experimental: as §1, §2, §3, §4
# NCI-H1437 (lung) = assay: MS detection of ZMP in cultured cells; format: cell-based; settings: Homo sapiens, 16 hours
# Experimental: as §1, §2, §3, §4
# NCI-H1993 (lung) = assay: MS detection of ZMP in cultured cells; format: cell-based; settings: Homo sapiens, low folate RPMI media, 16 hours
# Experimental: as §1, §2, §3, §4
# SNU-16 (gastric) = assay: MS detection of ZMP in cultured cells; format: cell-based; settings: Homo sapiens, 16 hours
# Experimental: as §1, §2, §3, §4
# SW620 (colon) = assay: MS detection of ZMP in cultured cells; format: cell-based; settings: Homo sapiens, 16 hours
# Experimental: as §1, §2, §3, §4
# ALK4 = target: T1, ALK4 (Homo sapiens, UniProt P36896); assay: CEREP protein kinase assay; format: biochemical
# T1 construct: purchased CEREP Panlabs (Eurofins)
# T1 sequence (P36896 24-505): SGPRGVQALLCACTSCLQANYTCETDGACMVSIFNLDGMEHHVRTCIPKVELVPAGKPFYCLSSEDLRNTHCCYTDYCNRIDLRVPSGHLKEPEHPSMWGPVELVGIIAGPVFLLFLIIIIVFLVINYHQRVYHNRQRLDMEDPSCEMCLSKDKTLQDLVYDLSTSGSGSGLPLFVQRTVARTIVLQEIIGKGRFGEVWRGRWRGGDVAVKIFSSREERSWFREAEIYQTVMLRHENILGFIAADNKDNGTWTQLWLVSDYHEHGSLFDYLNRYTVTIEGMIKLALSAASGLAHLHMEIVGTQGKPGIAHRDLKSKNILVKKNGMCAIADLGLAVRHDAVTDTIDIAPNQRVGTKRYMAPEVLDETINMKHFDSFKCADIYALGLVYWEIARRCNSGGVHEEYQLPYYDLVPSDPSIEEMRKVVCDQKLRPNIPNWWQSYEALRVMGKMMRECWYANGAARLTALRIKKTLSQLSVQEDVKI
# JAK1 = target: T2, JAK1 (Homo sapiens, UniProt P23458); assay: CEREP protein kinase assay; format: biochemical
# T2 construct: purchased CEREP Panlabs (Eurofins)
# SGK1 = target: T3, SGK1 (Homo sapiens, UniProt O00141); assay: CEREP protein kinase assay; format: biochemical
# T3 construct: purchased CEREP Panlabs (Eurofins)
# T3 sequence (O00141 1-431): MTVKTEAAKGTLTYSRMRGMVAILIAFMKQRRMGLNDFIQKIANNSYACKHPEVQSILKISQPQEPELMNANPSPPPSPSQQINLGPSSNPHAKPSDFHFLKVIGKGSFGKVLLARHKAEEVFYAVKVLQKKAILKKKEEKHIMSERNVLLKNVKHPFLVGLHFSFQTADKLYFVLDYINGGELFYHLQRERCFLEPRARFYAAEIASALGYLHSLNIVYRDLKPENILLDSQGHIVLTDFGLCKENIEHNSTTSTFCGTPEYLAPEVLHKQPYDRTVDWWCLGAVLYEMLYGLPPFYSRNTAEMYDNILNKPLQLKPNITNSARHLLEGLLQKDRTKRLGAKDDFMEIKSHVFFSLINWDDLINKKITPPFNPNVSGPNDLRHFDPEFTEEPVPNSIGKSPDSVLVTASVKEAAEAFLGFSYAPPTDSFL
# [1] = RPMI media, read-out: ZMP EC50 Regular folate
# [2] = low folate RPMI media, read-out: ZMP EC50 Low folate
# T2 sequence (P23458 whole entry): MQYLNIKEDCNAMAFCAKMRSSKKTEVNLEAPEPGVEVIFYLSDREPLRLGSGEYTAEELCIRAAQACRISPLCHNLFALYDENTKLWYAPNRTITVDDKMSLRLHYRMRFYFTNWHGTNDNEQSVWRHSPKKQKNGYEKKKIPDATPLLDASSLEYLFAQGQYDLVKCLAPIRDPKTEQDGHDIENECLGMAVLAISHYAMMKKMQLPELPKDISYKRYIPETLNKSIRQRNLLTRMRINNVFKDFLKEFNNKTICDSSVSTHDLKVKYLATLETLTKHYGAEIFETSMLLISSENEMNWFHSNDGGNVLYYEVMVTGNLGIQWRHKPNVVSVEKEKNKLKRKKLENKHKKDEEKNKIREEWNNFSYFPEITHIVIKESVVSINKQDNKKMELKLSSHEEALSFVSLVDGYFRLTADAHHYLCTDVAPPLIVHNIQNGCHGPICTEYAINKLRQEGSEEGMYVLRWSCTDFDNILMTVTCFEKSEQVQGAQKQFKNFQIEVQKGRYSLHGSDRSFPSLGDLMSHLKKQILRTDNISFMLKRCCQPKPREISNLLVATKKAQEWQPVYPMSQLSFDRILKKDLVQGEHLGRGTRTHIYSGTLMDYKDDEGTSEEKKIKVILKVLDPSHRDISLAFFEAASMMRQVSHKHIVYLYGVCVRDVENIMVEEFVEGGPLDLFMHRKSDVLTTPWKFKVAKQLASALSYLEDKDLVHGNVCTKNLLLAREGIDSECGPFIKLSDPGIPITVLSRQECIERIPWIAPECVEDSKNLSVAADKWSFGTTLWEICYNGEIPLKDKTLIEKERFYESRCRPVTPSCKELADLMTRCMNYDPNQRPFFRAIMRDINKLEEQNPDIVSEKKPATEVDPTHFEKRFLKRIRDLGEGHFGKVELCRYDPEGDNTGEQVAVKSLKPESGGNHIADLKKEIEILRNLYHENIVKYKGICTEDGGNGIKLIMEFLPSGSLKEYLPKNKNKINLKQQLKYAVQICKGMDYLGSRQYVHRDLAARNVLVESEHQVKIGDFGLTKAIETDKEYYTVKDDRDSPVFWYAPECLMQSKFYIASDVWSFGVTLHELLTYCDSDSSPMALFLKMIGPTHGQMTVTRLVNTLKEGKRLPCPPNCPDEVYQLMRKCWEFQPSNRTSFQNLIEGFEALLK
structure (smiles),measurement,setting,value
"O=c1[nH]ccc2cc(F)c(NS(=O)(=O)c3ccc(N4CC[C@@H](O)C4)s3)cc12 [LSN3213128, N-(6-Fluoro-1-oxo-1,2-dihydroisoquinolin-7-yl)-5-[(3R)-3-hydroxypyrrolidin-1-yl]thiophene-2-sulfonamide]",EC50,A101D (melenoma),2.3 nM
same,EC50,A549 (lung); [1],3100 nM
same,EC50,A549 (lung); [2],10 nM
same,EC50,HCT 116 (colon); [1],369 ± 44 nM
same,EC50,HCT 116 (colon); [2],2.7 ± 3.3 nM
same,EC50,MIA PaCa-2 (pancreas); [1],1700 nM
same,EC50,MIA PaCa-2 (pancreas); [2],4.2 nM
same,EC50,NCI-H1155 (lung); [1],380 nM
same,EC50,NCI-H1155 (lung); [2],2.3 nM
same,EC50,NCI-H1299,4.1 nM
same,EC50,NCI-H1437 (lung); [1],620 ± 354 nM
same,EC50,NCI-H1437 (lung); [2],4.6 nM
same,EC50,NCI-H1993 (lung),7.1 nM
same,EC50,SNU-16 (gastric); [1],2500 nM
same,EC50,SNU-16 (gastric); [2],2 nM
same,EC50,"SW620 (colon); SW-620, RPMI media, read-out: ZMP EC50 Regular folate",600 nM
same,EC50,"SW620 (colon); SW-620, low folate RPMI media, read-out: ZMP EC50 Low folate",4.3 ± 0.9 nM
same,inhibition at 0.2 µM,ALK4; @ 0.2 uM,-10.5%
same,inhibition at 2 µM,ALK4; @ 2 uM,10.4%
same,inhibition at 20 µM,ALK4; @ 20 uM,55%
same,inhibition at 0.2 µM,JAK1; @ 0.2 uM,-1.48%
same,inhibition at 2 µM,JAK1; @ 2 uM,5.53%
same,inhibition at 20 µM,JAK1; @ 20 uM,46.6%
same,inhibition at 0.2 µM,SGK1; @ 0.2 uM,-4.06%
same,inhibition at 2 µM,SGK1; @ 2 uM,7.54%
same,inhibition at 20 µM,SGK1; @ 20 uM,17.3%
